Results from publication PMC12670405, “Second-Generation AURKA-Targeting PROTACs: Structural Optimization toward in Vivo Degradation in Neuroblastoma” (Journal of Medicinal Chemistry, 2025).

Assays:
Assay in all cases: IncuCyte live-cell imaging, antiproliferative effect
SJNB-8 = assay type: cell-based; conditions: Homo sapiens, 72 h, read-out: Cell GI50 72h, SJNB-8
In short: (§1)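 Cells seeded in 384-well plates (neuroblastoma 1200–5000, HEK293T 600 cells/well), adhered overnight, then compound-treated in duplicate or triplicate; confluency tracked by IncuCyte live-cell imaging. Normalized confluence averaged from 3 experiments; absolute GI50 interpolated from four-parameter variable-slope curves.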

SK-N-SH = assay type: cell-based; conditions: Homo sapiens, 72 h, read-out: Cell GI50 72h
In short: as §1

SK-N-AS = assay type: cell-based; conditions: Homo sapiens, 72 h, read-out: Cell GI50 72h
In short: as §1

SK-N-BE(2)-C = assay type: cell-based, human; conditions: 72 h; for GI50: Homo sapiens, SK-N-BE(2)-C, read-out: Cell GI50 72h; for growth-inhibitory activity upon cotreatment with tariquidar (in words): NGP, SJNB-8 and SK-N-BE(2)-C, 1 μM tariquidar
Description: Human neuroblastoma cell lines NGP, IMR-32, SJNB-8, SK-N-BE(2)-C, SJNB-1, SK-N-SH and SK-N-AS, as well as benign immortalized cell lines RPE and HEK293T were either bought commercially or obtained through research laboratories. […] Screening for mycoplasma contamination occurred routinely on the cells. Human neuroblastoma cell lines SH-SY5Y_shABCB1 & SH-SY5Y_shNTC were generated by transduction with pLKO.1-ABCB1_TRCN0000059683 shRNA (Sigma MISSION SHCLND) or pLKO.1-puro NT shRNA (Sigma MISSION SHC002) vectors respectively (Supplementary Table S6), packaged using Lenti-X293T (Clontech). Transduced cells were selected with 2 μg/mL puromycin. These cells were cultured in DMEM 4.5 g/L D-Glucose, L-Glutamine and 110 mg/L Sodium Pyruvate (Gibco, #11995065) supplemented with 10% fetal bovine serum, 1× Antibiotic-Antimycotic solution (Sigma-Aldrich, #A5955) and 1× MEM nonessential amino acids (Sigma-Aldrich, #M7145). Incubation of all cells occurred at 37 °C and 5% CO2.
(§2) Neuroblastoma cells were seeded in 384-well plates at different densities ranging from 1200 to 5000 cells/well and allowed to adhere overnight. RPE and HEK293T were seeded at 200 and 600 cells/well, respectively. Compound treatment was performed using the D300e Digital Dispenser (Tecan) in duplicate or triplicate and cell confluency was monitored over time using the IncuCyte Live-cell imaging system (Sartorius). […] Mean normalized confluences were calculated from 3 individual experiments.
All dose–response curves were computed on GraphPad Prism using the Variable Slope (four parameters) equation. Absolute half-maximal degradation (DC50), growth inhibitory (GI50) and enzymatic inhibitory (IC50) concentrations, as well as inhibition constants (Ki) were derived from dose–response curves via interpolation. Statistical tests were performed on GraphPad Prism and detailed in the figure legends. Unless otherwise stated, “n” in the figure legends indicates the number of independent experiments conducted at different times.

SJNB-1 = assay type: cell-based; conditions: Homo sapiens, 72 h, read-out: Cell GI50 72h
Method: The use of human cell lines in this study was approved by the Ethics Committee of Ghent University Hospital (EC/029-2022/sds). Human neuroblastoma cell lines NGP, IMR-32, SJNB-8, SK-N-BE(2)-C, SJNB-1, SK-N-SH and SK-N-AS, as well as benign immortalized cell lines RPE and HEK293T were either bought commercially or obtained through research laboratories. The neuroblastoma cell lines and HEK293T were cultured in RPMI 1640 medium (Gibco, #52400041) supplemented with 10% fetal bovine serum (Sigma-Aldrich, #F0804), 2 mM L-glutamine (Gibco, #11548876), and 100 IU/mL penicillin/streptomycin (Gibco, #11548876). RPE cells were cultured in DMEM-F12 (Gibco, #11594426), supplemented with 10% fetal bovine serum, 2 mM L-glutamine and 100 IU/mL penicillin/streptomycin. Screening for mycoplasma contamination occurred routinely on the cells. […]
as §2, with “RPE and HEK293T were seeded at 200 and 600 cells/well, respectively.” left out, “experiments. […]” for “experiments.”

Structure (SMILES)	GI50 (SJNB-8) [µM]	GI50 (SK-N-SH) [µM]	GI50 (SK-N-AS) [µM]	GI50 (SK-N-BE(2)-C) [µM]	GI50 (SJNB-1) [µM]	growth-inhibitory activity upon cotreatment with tariquidar (in words) (SK-N-BE(2)-C)
O=C1CCC(N2C(=O)c3cccc(OCCOCCOCCOCCNC(=O)[C@]4(Cc5cccc(Nc6nccs6)n5)CC[C@@H](Oc5cccc(Cl)c5F)CC4)c3C2=O)C(=O)N1 (stereo partly shown) [SK2188, reference compound]	0.173	1.58	3.18	3.73		
Cc1cc(Nc2ccc(F)c(CC3(C(=O)N4CCC(CN5CCN(c6ccc(N7CCC(=O)NC7=O)cn6)CC5)CC4)CCN(Cc4cccc(Cl)c4F)CC3)n2)n[nH]1 [SK4454]	< 0.1	0.43	0.994	1.11	13.4	comparable to AURKA inhibitor TAS-119
Cc1cc(Nc2ccc(F)c(CC3(C(=O)N4CCC(F)(CN5CCN(c6ccc(N7CCC(=O)NC7=O)cn6)CC5)CC4)CCN(Cc4cccc(Cl)c4F)CC3)n2)n[nH]1 [SK5527]	< 0.1	0.244	0.654	0.477	8.63	comparable to AURKA inhibitor TAS-119
